Like-named read-outs stand apart in the source and are kept apart here.
Assays:
[1] = target: T1, LasB (Pseudomonas aeruginosa, UniProt Q02RJ6); assay: biochemical; assay type: biochemical; conditions: for fold drop in activity compared to the 4-Me derivative (4a): vs 4a
T1 construct: made in house

[2] = target: ColH-PD (Hathewaya histolytica, UniProt Q46085); assay: biochemical; assay type: biochemical, Clostridium histolyticum; conditions: for inhibition at 1 µM: read-out: % inhibition ColH-PD @1 µM
Sequence of ColH-PD (Q46085 331-721 limits assumed): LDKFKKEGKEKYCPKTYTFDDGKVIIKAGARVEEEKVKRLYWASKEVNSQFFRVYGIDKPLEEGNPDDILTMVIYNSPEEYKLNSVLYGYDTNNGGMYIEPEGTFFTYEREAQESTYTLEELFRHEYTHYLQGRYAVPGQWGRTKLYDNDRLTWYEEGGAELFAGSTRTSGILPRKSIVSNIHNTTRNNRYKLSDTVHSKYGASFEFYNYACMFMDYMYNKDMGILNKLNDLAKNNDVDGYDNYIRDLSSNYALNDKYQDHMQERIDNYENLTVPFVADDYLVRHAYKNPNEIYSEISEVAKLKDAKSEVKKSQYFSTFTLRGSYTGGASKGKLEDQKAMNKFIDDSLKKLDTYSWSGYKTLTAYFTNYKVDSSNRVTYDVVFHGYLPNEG

[3] = target: T2, MMP-1 (Homo sapiens, UniProt P03956); assay: MMP-1 inhibition assay; assay type: biochemical; conditions: read-out: % inhibition MMP-1
T2 construct: purchased AnaSpec (Fremont, CA, USA)
T2 sequence (P03956 100-469): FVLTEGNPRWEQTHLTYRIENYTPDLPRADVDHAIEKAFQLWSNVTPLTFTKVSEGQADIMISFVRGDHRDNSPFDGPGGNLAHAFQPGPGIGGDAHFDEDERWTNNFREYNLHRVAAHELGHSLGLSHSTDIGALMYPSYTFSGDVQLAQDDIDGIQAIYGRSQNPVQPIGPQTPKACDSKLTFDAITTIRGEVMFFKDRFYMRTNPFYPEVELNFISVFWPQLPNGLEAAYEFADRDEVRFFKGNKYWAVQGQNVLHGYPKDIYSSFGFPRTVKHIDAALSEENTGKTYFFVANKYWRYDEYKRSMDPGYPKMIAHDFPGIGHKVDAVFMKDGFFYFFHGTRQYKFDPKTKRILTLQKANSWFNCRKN

[4] = target: T3, COX-1 (Ovis aries, UniProt P05979); assay: Fluorometric COX-1 inhibitor assay; assay type: biochemical, human
T3 construct: purchased Abcam (Cambridge, UK)
T3 sequence (P05979 25-600): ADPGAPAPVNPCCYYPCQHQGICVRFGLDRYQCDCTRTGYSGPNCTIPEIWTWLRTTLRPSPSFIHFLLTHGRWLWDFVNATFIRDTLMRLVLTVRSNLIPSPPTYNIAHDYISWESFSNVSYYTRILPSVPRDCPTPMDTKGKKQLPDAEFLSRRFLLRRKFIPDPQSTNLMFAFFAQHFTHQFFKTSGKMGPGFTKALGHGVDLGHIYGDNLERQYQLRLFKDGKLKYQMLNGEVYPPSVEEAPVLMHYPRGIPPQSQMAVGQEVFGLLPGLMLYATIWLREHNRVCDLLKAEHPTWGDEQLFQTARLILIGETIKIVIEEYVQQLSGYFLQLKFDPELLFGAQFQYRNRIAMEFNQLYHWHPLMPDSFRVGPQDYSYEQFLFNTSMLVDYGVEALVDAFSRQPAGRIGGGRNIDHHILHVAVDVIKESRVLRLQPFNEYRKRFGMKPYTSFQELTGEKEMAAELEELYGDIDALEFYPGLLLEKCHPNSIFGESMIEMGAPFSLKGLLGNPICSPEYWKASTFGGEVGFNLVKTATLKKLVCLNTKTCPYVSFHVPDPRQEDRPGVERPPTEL

[5] = target: T4, TACE (Homo sapiens, UniProt P78536); assay: TACE inhibitor screening kit; assay type: biochemical; conditions: read-out: % inhibition TACE
T4 construct: purchased Sigma-Aldrich (Saint Louis, MO)
T4 sequence (P78536 215-824): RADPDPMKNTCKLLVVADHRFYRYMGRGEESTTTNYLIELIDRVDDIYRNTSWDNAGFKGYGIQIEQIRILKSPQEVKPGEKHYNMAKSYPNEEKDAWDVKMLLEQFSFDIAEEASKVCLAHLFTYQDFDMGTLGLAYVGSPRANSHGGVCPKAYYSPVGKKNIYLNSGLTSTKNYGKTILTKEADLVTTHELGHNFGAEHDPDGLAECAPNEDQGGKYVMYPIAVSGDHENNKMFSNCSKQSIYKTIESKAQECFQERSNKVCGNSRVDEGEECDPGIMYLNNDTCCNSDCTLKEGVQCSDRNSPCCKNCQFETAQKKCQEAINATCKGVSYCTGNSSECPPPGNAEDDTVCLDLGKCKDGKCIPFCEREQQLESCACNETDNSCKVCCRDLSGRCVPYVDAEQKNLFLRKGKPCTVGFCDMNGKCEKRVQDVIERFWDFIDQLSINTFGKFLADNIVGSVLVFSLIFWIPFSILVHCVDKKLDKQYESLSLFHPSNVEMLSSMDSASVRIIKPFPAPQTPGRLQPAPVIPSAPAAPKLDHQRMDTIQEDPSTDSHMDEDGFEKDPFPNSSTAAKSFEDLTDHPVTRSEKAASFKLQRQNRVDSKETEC

[6] = target: T5, MMP-2 (Homo sapiens, UniProt P08253); assay: MMP-2 inhibition assay; assay type: biochemical; conditions: read-out: % inhibition MMP-2
T5 construct: purchased AnaSpec (Fremont, CA, USA)
T5 sequence (P08253 110-660): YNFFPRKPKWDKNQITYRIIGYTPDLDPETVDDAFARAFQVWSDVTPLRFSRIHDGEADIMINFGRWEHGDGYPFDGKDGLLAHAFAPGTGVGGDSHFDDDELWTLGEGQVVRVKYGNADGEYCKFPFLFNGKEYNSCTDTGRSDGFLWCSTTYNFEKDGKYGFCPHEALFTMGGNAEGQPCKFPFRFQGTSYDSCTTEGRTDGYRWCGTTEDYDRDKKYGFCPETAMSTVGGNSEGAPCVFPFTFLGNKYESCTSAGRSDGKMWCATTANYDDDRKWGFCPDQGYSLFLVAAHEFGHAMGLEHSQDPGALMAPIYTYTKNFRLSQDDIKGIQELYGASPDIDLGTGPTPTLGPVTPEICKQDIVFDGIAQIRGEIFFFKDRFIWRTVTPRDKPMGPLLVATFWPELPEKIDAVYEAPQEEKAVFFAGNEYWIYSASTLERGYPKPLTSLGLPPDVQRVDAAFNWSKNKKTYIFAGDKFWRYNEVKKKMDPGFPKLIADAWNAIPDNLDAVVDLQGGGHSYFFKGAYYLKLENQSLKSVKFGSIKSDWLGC

[7] = Metabolic stability in human liver S9 fraction; assay type: in vitro ADME
[8] = target: T6, MMP-3 (Homo sapiens, UniProt P08254); assay: MMP-3 inhibition assay; assay type: biochemical; conditions: read-out: % inhibition MMP-3
T6 construct: purchased AnaSpec (Fremont, CA, USA)
T6 sequence (P08254 100-477): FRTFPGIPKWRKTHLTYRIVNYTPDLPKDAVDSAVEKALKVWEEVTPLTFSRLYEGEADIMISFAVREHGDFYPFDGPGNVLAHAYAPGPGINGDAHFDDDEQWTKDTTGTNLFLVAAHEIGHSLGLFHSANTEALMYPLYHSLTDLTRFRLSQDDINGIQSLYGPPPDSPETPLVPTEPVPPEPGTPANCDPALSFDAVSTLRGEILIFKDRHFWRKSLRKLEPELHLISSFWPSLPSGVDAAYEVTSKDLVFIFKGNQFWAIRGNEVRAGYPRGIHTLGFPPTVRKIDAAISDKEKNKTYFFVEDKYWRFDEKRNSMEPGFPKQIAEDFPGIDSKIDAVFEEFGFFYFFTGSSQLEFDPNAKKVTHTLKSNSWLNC

[9] = system: P. aeruginosa PA14; assay: Bacterial growth inhibition assay; assay type: cell-based, Pseudomonas aeruginosa; conditions: Pseudomonas aeruginosa, PA14; 100 µM compound concentration; read-out: Percent (%) growth inhibition of P. aeruginosa PA14
Experimental: Bacterial growth inhibition assay. Assays regarding the determination of the MIC were
performed as described recently for P. aeruginosa PA14.58

[10] = Lipophilicity determination (LogD7.4, HPLC-MS); assay type: physicochemical; conditions: pH 7.4, pH 7.4, chromatographic
Experimental: Lipophilicity determination. LogD7.4 was analyzed using an HPLC−MS based method.50 The retention time of 12 compounds with known LogD7.4 was determined and plotted toward their LogD7.4. Linear regression was used to determine the LogD7.4 of unknown compounds. Analysis was performed using a Dionex Ultimate 3000 HPLC system coupled to a TSQ Quantum Access MAX (Thermo Fisher, Dreieich, Germany) with the following conditions: EC150/2 NUCLEODUR C18 Pyramid column, 5 μM (Macherey Nagel, Düren, Germany); eluent A: 50 mM NH4OAc pH 7.4, eluent B: acetonitrile, and flow: 0.6 mL/min.

[11] = Metabolic stability in mouse liver S9 fraction; assay type: in vitro ADME
[12] = system: HEK293; conditions: human, 48 h, 100 µM
Experimental: Culturing of HepG2, A549 and HEK293 cells. The human hepatocellular carcinoma cell line HepG2, the lung adenocarcinoma cell line A549 and Human Embryonic (HEK) 293 cells were cultured in Dulbecco's Modified Eagle Medium (DMEM), containing 10% Fetal Bovine Serum
(FBS) and 1% penicillin-streptomycin mixture. Cells were maintained according to standard cell
Cytotoxicity assay. An MTT-based assay was employed to evaluate the viability of HepG2,
HEK293 and A549 cells after challenge with selected LasB inhibitors and performed as described

[13] = Plasma stability, mouse; assay type: in vitro ADME; conditions: mouse plasma; read-out: Plasma T1/2 Mouse
[14] = system: Galleria mellonella larvae infected with wt PA14; assay: G. mellonella infection model
[15] = FRET-based assay, read-out: LasB IC50

T1 sequence (Q02RJ6 198-498): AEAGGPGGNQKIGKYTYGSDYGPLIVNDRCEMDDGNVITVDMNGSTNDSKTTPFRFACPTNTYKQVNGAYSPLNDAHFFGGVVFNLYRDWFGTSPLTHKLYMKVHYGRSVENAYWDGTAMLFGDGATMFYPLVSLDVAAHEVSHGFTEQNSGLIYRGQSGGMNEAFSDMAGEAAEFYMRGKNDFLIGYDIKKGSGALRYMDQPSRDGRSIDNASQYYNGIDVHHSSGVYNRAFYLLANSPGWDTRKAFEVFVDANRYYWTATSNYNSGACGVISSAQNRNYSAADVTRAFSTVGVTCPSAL

For `Cc1ccc(NC(=O)C(CC(C)C)P(=O)(O)O)c(F)c1` (stereo not shown) [Compound 4d], the IC50 [1, 15] was 116 ± 16.1 nM, the “fold drop in activity compared to the 4-Me derivative (4a)” value [1] was about 2 fold and the inhibition at 1 µM [2] was under 10%.

For `Cc1ccc(NC(=O)C(CC(C)C)P(=O)(O)O)c(C)c1` (stereo not shown) [Compound 4e], the IC50 [1, 15] was 84.5 ± 2.7 nM and the “fold drop in activity compared to the 4-Me derivative (4a)” value [1] was about 2 fold.

`COc1ccc(NC(=O)C(CC(C)C)P(=O)(O)O)cc1` (stereo not shown) [Compound 4f] gave an IC50 [1, 15] of 51.8 ± 10.4 nM and an inhibition at 1 µM [2] of under 10%.

For `CC(=O)c1ccc(NC(=O)C(CC(C)C)P(=O)(O)O)cc1` (stereo not shown) [Compound 4g], the IC50 [1, 15] was 40.4 ± 11.6 nM, the “% inhibition ColH-PD @1 µM” value [2] was 65% and the Ki [2] was 320 ± 70 nM. For the same compound, the “fold higher potency against ColH compared to 2” value [2] was 20 fold.

Work on `CC(C)CC(C(=O)Nc1ccc(Cl)cc1)P(=O)(O)O` (stereo not shown) [Compound 4i] yielded an IC50 [1, 15] of 47.6 ± 4.4 nM.

In the case of `CC(C)CC(C(=O)Nc1ccc(Br)cc1)P(=O)(O)O` (stereo not shown) [Compound 4j], the IC50 [1, 15] is reported as 48.6 ± 2.3 nM.

Compound `CC(C)CC(C(=O)Nc1ccc(C#N)cc1)P(=O)(O)O` (stereo not shown) [Compound 4k] has an inhibition at 100 µM [3] of 10 ± 5%, an IC50 ([1]; LasB IC50, FRET-based assay) of about 25 nM and an IC50 ([1]; LasB IC50 in presence of 1% pulmonary surfactant, 1% pulmonary surfactant) of 85 nM. It also gave an inhibition at 100 µM [4] of under 10%, an inhibition at 100 µM [5] of under 10% and an inhibition at 100 µM [6] of under 10%. The microsomal CLint at 1 μM [7] was under 5.8 µL/min/mg, the inhibition at 100 µM [8] was 11 ± 5% and the inhibition at 100 µM [9] was under 10%. The chromatographic logD [10] was -0.87, the microsomal CLint at 1 μM [11] was under 5.8 µL/min/mg and the “% growth inhibition HEK293” value [12] was 15 ± 23%. For the same compound, the half-life at 1 μM [13] was over 2.5 h.

In the case of `CC(C)CC(C(=O)Nc1cccc2ccccc12)P(=O)(O)O` (stereo not shown) [Compound 4m], the IC50 [1, 15] is reported as 69.1 ± 7.5 nM.

In the case of `CC(C)CC(C(=O)Nc1ccc2ccccc2c1)P(=O)(O)O` (stereo not shown) [Compound 4n], the IC50 [1, 15] is reported as 63.6 ± 9.9 nM.

`CC(C)CC(C(=O)Nc1ccc2c(c1)CCC2)P(=O)(O)O` (stereo not shown) [Compound 4o] gave an IC50 [1, 15] of 44.3 ± 4.5 nM.

For `CC(C)CC(C(=O)Nc1ccc(Cl)cn1)P(=O)(O)O` (stereo not shown) [Compound 4p], the IC50 [1, 15] was 500 ± 40 nM and the “fold more potent than 4q” value ([1]; vs 4q) was 2 fold.

`CC(C)CC(C(=O)Nc1ccc(C(N)=O)nc1)P(=O)(O)O` (stereo not shown) [Compound 4r] gave an IC50 ([1]; LasB IC50, FRET-based assay) of 220 ± 20 nM.

`Cc1ccc(NC(=O)C(Cc2ccccc2)P(=O)(O)O)cc1` (stereo not shown) [Compound 4x] showed an IC50 [1, 15] of 137 ± 33 nM.

With `O=C(Nc1ccc(C(F)(F)F)cc1)C(Cc1ccccc1)P(=O)(O)O` (stereo not shown) [Compound 4y] the IC50 [1, 15] was 101.5 ± 0.9 nM.

`Cc1ccc(NC(=O)C(CC2CCCCC2)P(=O)(O)O)cc1` (stereo not shown) [Compound 4z] showed an IC50 [1, 15] of 2030 nM.

In the case of `NC[C@H]1O[C@H](O[C@H]2[C@H](O)[C@@H](O[C@H]3O[C@H](CO)[C@@H](O)[C@H](N)[C@H]3O)[C@H](N)C[C@@H]2N)[C@H](N)C[C@@H]1O` [tobramycin, reference compound], the “survival of larvae infected with wt PA14” value ([14]; 1 nmol 4b, 10.7 nmol tobramycin, or both, 17% in the wild type) is reported as 23% and the “survival in the PBS treated groups (not infected)” value ([14]; PBS with 4b, tobramycin or combination of both) is reported as 100%.

From paper PMC10755728, “Inhibitors of the Elastase LasB for the Treatment of Pseudomonas aeruginosa Lung Infections” (ACS Central Science, 2023)
